Measurements taken from BigSolDB 2.1.

Br.Cc1ccc(Sc2ccccc2N2CCNCC2)c(C)c1
solubility (mole fraction)
Settings	283.15 K	288.15 K	293.15 K	298.15 K	303.15 K	308.15 K	313.15 K	318.15 K
in 2-butanone	6.2e-05	8.4e-05	0.000136	0.000163	0.00021	0.000267	0.000311	0.000338
in ethanol	0.00123	0.00138	0.0015	0.00162	0.00199	0.00269	0.00297	0.00341
in n-butanol	0.000582	0.000751	0.00086	0.00121	0.0017	0.00202	0.0023	0.00271
in n-propanol	0.000934	0.00101	0.00115	0.00132	0.00178	0.00214	0.00245	0.00295
